Test results published in ChEMBL document CHEMBL1144578, “Chemotherapy of leishmaniasis Part VI: synthesis and bioevaluation of some novel terpenyl S,N- and N,N-acetals” (Eur J Med Chem, 2007).
Active and inactive are the calls of the source. No cut-off for these calls is given here.

What was measured:
Hamster = experiment: Toxicity in hamster at 50 mg/kg; assay type: organism-based; parameters: dose 50 mg/kg; conditions: cricetinae, in vivo
Leishmania donovani [1] = experiment: Inhibition of Leishmania donovani HOM/IN/80/DD8 in hamster at 50 mg/kg, ip after 7 days; assay type: functional; conditions: for inhibition in vivo at 50 mg/kg: HOM/IN/80/DD8, ip, 168 h, route intraperitoneal
Leishmania donovani [2] = experiment: Inhibition of Leishmania donovani HOM/IN/80/DD8 in hamster at 50 mg/kg, ip after 28 days; assay type: functional; conditions: HOM/IN/80/DD8, ip, 672 h, route intraperitoneal
Leishmania donovani [3] = experiment: Inhibition of Leishmania donovani HOM/IN/80/DD8 in hamster at 50 mg/kg, po after 7 days; assay type: functional; conditions: HOM/IN/80/DD8, 168 h
Leishmania donovani [4] = experiment: Inhibition of Leishmania donovani HOM/IN/80/DD8 in hamster at 50 mg/kg, po after 28 days; assay type: functional; conditions: HOM/IN/80/DD8, 672 h
Leishmania donovani [5] = experiment: Inhibition of Leishmania donovani HOM/IN/80/DD8 in hamster at 12.5 mg/kg, po after 28 days; assay type: functional; conditions: HOM/IN/80/DD8, 672 h
Leishmania donovani [6] = experiment: Inhibition of Leishmania donovani HOM/IN/80/DD8 in hamster at 12.5 mg/kg, po after 7 days; assay type: functional; conditions: HOM/IN/80/DD8, 168 h

For `CC1=C(/C=C/C(=O)C=C(N2CCNCC2)N2CCNCC2)C(C)(C)CCC1`, the Activity (Hamster) was “Toxic”.

In the case of `CC1=C(/C=C/C(=O)C=C(N2CCOCC2)N2CCOCC2)C(C)(C)CCC1`, the Activity (Leishmania donovani [1]) is reported as “inactive”.

In the case of `COc1ccc(N/C(=C\C(=O)/C=C/C2=C(C)CCCC2(C)C)SC)cc1`, the inhibition in vivo at 50 mg/kg (Leishmania donovani [1]) is reported as 52%.

Work on `CC1=C(/C=C/C(=O)C=C2NCCN2)C(C)(C)CCC1` yielded an inhibition in vivo at 50 mg/kg (Leishmania donovani [2]) of 65%, an inhibition in vivo at 50 mg/kg (Leishmania donovani [3]) of 40% and an inhibition in vivo at 50 mg/kg (Leishmania donovani [1]) of 30%. It also gave an inhibition in vivo at 50 mg/kg (Leishmania donovani [4]) of 71%.

`CS/C(=C/C(=O)/C=C/C1=C(C)CCCC1(C)C)NC1CCCCC1` showed an inhibition in vivo at 50 mg/kg (Leishmania donovani [1]) of 46%.

`CS/C(=C/C(=O)/C=C/C1=C(C)CCCC1(C)C)Nc1ccc(F)cc1` was tested, and the inhibition in vivo at 50 mg/kg (Leishmania donovani [1]) was 31%.

For `CS/C(=C/C(=O)/C=C/C1=C(C)CCCC1(C)C)Nc1ccccc1`, the Activity (Leishmania donovani [1]) was “inactive”.

In the case of `CCN(/C(=C\C(=O)/C=C/C1=C(C)CCCC1(C)C)SC)c1ccccc1`, the Activity (Leishmania donovani [1]) is reported as “inactive”.

Compound `CS/C(=C/C(=O)/C=C/C1=C(C)CCCC1(C)C)Nc1cccc(F)c1` has an inhibition in vivo at 50 mg/kg (Leishmania donovani [1]) of 53%.

With `CCCCCCCCCCCCCCCCOP(=O)([O-])OCC[N+](C)(C)C` [MILTEFOSINE] the inhibition in vivo at 12.5 mg/kg (Leishmania donovani [5]) was 69% and the inhibition in vivo at 12.5 mg/kg (Leishmania donovani [6]) was 94%.

Compound `CS/C(=C/C(=O)/C=C/C1=C(C)CCCC1(C)C)Nc1ccc(Cl)cc1` has an inhibition in vivo at 50 mg/kg (Leishmania donovani [1]) of 18%.
